Columns and labels:
[1] = test system: colistin-resistant E. coli clinical isolates; experiment: Disk diffusion antimicrobial susceptibility testing (CLSI); assay type: cell-based, Escherichia coli; conditions: for %Resistance: ten E. coli isolates, disk diffusion
Method: (§1) Ten non-duplicate clinical isolates of colistin-resistant E. coli (EC) and ten non-duplicate clinical isolates of colistin-resistant K. pneumoniae (KP) were obtained from the bacterial repository of the Division of Infectious Diseases and Tropical Medicine, Department of Medicine, Faculty of Medicine Siriraj Hospital, Mahidol University. The species identification was conducted through standard biochemical tests. Antimicrobial susceptibility testing was carried out using the disk diffusion method following CLSI guidelines. Additionally, the assessment of colistin resistance in all isolates was performed by broth microdilution following CLSI recommendations. […] The amino acid sequences of BP203 and MAP-0403 J-2 were retrieved from previous studies. These peptides are BP100 and MAP-0403 analogs, respectively. […] Antibiotic disks and defibrinated sheep blood were obtained from Oxoid (Basingstoke, UK). All culture media were purchased from Becton Dickinson (Frankin Lakes, NJ, USA). All chemicals were obtained from Sigma-Aldrich (St. Louis, MO, USA).

[2] = test system: colistin-resistant K. pneumoniae clinical isolates; experiment: as above; assay type: cell-based, Klebsiella pneumoniae; conditions: for %Resistance: ten K. pneumoniae isolates, disk diffusion; for Interpreted results of disk diffusion: key: R: resistant; I: intermediate; SDD: susceptible-dose dependent; S: sensitive
Method: as §1

SMILES | Interpreted results of disk diffusion ([1]; EC-01) | Interpreted results of disk diffusion ([1]; EC-02) | Interpreted results of disk diffusion ([1]; EC-03) | Interpreted results of disk diffusion ([1]; EC-04) | Interpreted results of disk diffusion ([1]; EC-05) | Interpreted results of disk diffusion ([1]; EC-06) | Interpreted results of disk diffusion ([1]; EC-07) | Interpreted results of disk diffusion ([1]; EC-08) | Interpreted results of disk diffusion ([1]; EC-09) | Interpreted results of disk diffusion ([1]; EC-10) | %Resistance [1] [%] | Interpreted results of disk diffusion ([2]; KP-01) | Interpreted results of disk diffusion ([2]; KP-02) | Interpreted results of disk diffusion ([2]; KP-03) | Interpreted results of disk diffusion ([2]; KP-04) | Interpreted results of disk diffusion ([2]; KP-05) | Interpreted results of disk diffusion ([2]; KP-06) | Interpreted results of disk diffusion ([2]; KP-07) | Interpreted results of disk diffusion ([2]; KP-08) | Interpreted results of disk diffusion ([2]; KP-09) | also measured
C[C@@H](O)[C@H]1C(=O)N2C(C(=O)O)=C(S[C@@H]3CN[C@H](C(=O)Nc4cccc(C(=O)O)c4)C3)[C@H](C)[C@H]12 [ETP, ertapenem] | S | S | S | S | S | S | S | S | S | S | 0 | R | R | R | R | R | R | R | R | R | Interpreted results of disk diffusion ([2]; KP-10): R; %Resistance [2]: 100%
CO/N=C(\C(=O)N[C@@H]1C(=O)N2C(C(=O)[O-])=C(C[N+]3(C)CCCC3)CS[C@H]12)c1csc(N)n1 [FEP, cefepime] | R | R | R | R | SDD | S | R | SDD | R | R | 70 | R | R | R | R | R | R | R | R | R | Interpreted results of disk diffusion ([2]; KP-10): R; %Resistance [2]: 100%
C[C@@H]1O[C@@H]1P(=O)(O)O [FOS, fosfomycin] | S | S | S | R | S | S | S | S | S | S | 10 | S | R | I | R | S | R | S | R | R | Interpreted results of disk diffusion ([2]; KP-10): R; %Resistance [2]: 60%
CO[C@@]1(NC(=O)Cc2cccs2)C(=O)N2C(C(=O)O)=C(COC(N)=O)CS[C@@H]21 [FOX, cefoxitin] | S | S | S | I | S | S | S | S | S | S | 0 | R | R | R | R | R | R | R | R | R | Interpreted results of disk diffusion ([2]; KP-10): R; %Resistance [2]: 100%
CNC(C)C1CCC(N)C(OC2C(N)CC(N)C(OC3OCC(C)(O)C(NC)C3O)C2O)O1 (centres unmarked) [GM, gentamicin] | R | S | R | R | R | R | S | R | R | R | 80 | S | R | S | S | S | S | S | S | S | Interpreted results of disk diffusion ([2]; KP-10): S; %Resistance [2]: 10%

Source: article PMC10653547, “Synergistic effect of two antimicrobial peptides, BP203 and MAP-0403 J-2 with conventional antibiotics against colistin-resistant Escherichia coli and Klebsiella pneumoniae clinical isolates” (PLOS ONE, 2023)
